In patent publication US20250034196A1, “ESTER DERIVATIVES OF N4-HYDROXYCYTIDINE AND USE THEREOF” (priority 2021, published 2025):

Assays:
in vitro [1] = type: in vitro ADME; settings: plasma
Description: (§1) Preparation of Solutions: Stock solution (10 mM) of each of test compounds was prepared in DMSO. The stock solution for each compound was then diluted into 100 μM with acetonitrile.
Plasma Incubations: Plasma incubations were conducted in duplicate in 96-well plate at 37° C. Plasma was prewarmed in a total volume of 198 μL for 5 min at 37° C., then added 2 μL of 100 μM test compound into an incubation well containing plasma, pipette-mixed to achieve a homogenous suspension and immediately transferred 20 μL incubate as a 0 min sample to wells in a “Quenching” plate followed by adding 200 μL of acetonitrile with metolazone as internal standard (IS) and pipette-mixing. At 2, 5, 60, and 90 min, pipette-mixed the incubate and serially transfer samples of 20 μL incubate per time point to wells in a separate “Quenching” plate followed by adding 200 μL of acetonitrile with metolazone as IS and pipette-mixing.
(§2) Sample Analysis: The 96-well plate was centrifuged at 6000 g for 10 min. The supernatant was injected onto the LC-MS/MS system for analysis.

in vivo = experiment: in vivo; design: species or system Beagle Dogs; settings: dog, po, 22 mg/kg; for AUC(0-inf): AUCINF of CH2107 (Molnupiravir); for AUC(0-t): AUClast of CH2107 (Molnupiravir); for Cmax: Cmax of CH2107 (Molnupiravir); for MRT inf: MRTINF of CH2107 (Molnupiravir); for half-life: T1/2 of CH2107 (Molnupiravir); for Tmax: Tmax of CH2107 (Molnupiravir)
Description: Example 174: Pharmacokinetic Study of EX-2 (CH2101), Molnupiravir (CH2017) and its Metabolite NHC (CH2018) Following a Single PO Administration of EX-2 (CH2101) or Molnupiravir (CH2017) in Male and Female Beagle Dogs
Both test compounds were prepared in 1% methyl cellulose (400 cps, SIGMA, SLCF9694) solution in purified water.
A total of 6 male+6 female Beagle Dogs, approximately 7-13 kg of bodyweight, were originally purchased from Marshall Biotechnology Co., Ltd. The animals were fasted overnight prior to dosing and food was re-provided after 4 hours post dosing.
The animals were restrained manually, and approximately 1 mL of blood at each time point was collected into pre-cooled EDTA-K2 tubes via cephalic or saphenous veins. Blood samples were centrifuged at 4° C. (4000 rpm. 5 min) to obtain plasma within 30 min after sample collection. All samples were stored at approximately −80° C. until analysis. The backup samples will be discarded after the in vivo experiment has been completed for two months unless requested.

Microsome stability = type: in vitro ADME, Monkey; settings: Monkey liver microsomes 0.2 mg/mL, NADPH, 1 μM
Description: as §1
(§3) Microsome Incubations: Incubation mixtures were prepared in a total volume of 200 μL with final component concentrations as follows: 0.1M PBS (pH 7.4), NADPH (2 mM) and liver microsomes (0.2 mg/mL) as well as test compound (1 μM) or Molnupiravir (1 μM) as a positive control, wherein the NADPH was added after a 5-min preincubation of all other components at 37° C. Pipette-mixed to achieve a homogenous suspension and immediately transferred 20 μL incubate as a 0 min sample to wells in a “Quenching” plate followed by adding 200 μL of acetonitrile with metolazone as IS and pipette-mixing. At 2, 5, 10, and 45 min, pipette-mixed the incubate and serially transfer samples of 20 μL incubate per time point to wells in a separate “Quenching” plate followed by adding 200 μL of acetonitrile with metolazone as IS and pipette-mixing.
as §2

in vitro [2] = settings: African green monkey
in vitro [3] = type: in vitro ADME; settings: microsomes, pH 7.4
Description: as §1, §3, §2

SARS-CoV-2 = settings: 800 mg twice a day for 5 days, early infected patients; cited from earlier work
[4] = both sexes, beagle, Plasma concentration of CH2107 (Molnupiravir)
[5] = female, beagle, Plasma concentration of CH2107 (Molnupiravir)
[6] = male, beagle, Plasma concentration of CH2107 (Molnupiravir)

CC(C)C(=O)OC[C@H]1O[C@@H](n2ccc(NO)nc2=O)[C@H](O)[C@@H]1O [Molnupiravir]
half-life at 1 µM (in vitro [1]; dog): 39.4 min | half-life at 1 µM (in vitro [1]; human): 66.2 min | half-life at 1 µM (in vitro [1]; monkey): 25.8 min | half-life at 1 µM (in vitro [1]; mouse): 25.8 min | half-life at 1 µM (in vitro [1]; rat): 3.3 min | AUC(0-inf) (in vivo; both sexes, Beagle): 932 ng·h/mL | AUC(0-t) (in vivo; both sexes, Beagle): 930 ng·h/mL | Cmax (in vivo; both sexes, Beagle): 1320 ng/mL | MRT inf (in vivo; both sexes, Beagle): 38.9 min | half-life (in vivo; both sexes, Beagle): 25.2 min | concentration at 0.083 hr (in vivo; [4]): 496 ng/mL | concentration at 0.25 hr (in vivo; [4]): 1300 ng/mL | concentration at 0.5 hr (in vivo; [4]): 1010 ng/mL | concentration at 1 hr (in vivo; [4]): 230 ng/mL | concentration at 2 hr (in vivo; [4]): 28.2 ng/mL | concentration at 4 hr (in vivo; [4]): 4.75 ng/mL | concentration at 6 hr (in vivo; [4]): 5.45 ng/mL | concentration at 8 hr (in vivo; [4]): 1.08 ng/mL | Tmax (in vivo; both sexes, beagle): 18.8 min | AUCmale/female of CH2107 (Molnupiravir) (in vivo; both, Beagle): 171% | AUCmale/female of EX-1/NHC/CH2018 (in vivo; both, Beagle): 128% | Plasma concentration of EX-1/NHC/CH2018 (in vivo; both, Beagle, 0.083 hr): 527 ng/mL | Plasma concentration of EX-1/NHC/CH2018 (in vivo; both, Beagle, 0.25 hr): 5653 ng/mL | Plasma concentration of EX-1/NHC/CH2018 (in vivo; both, Beagle, 0.5 hr): 8040 ng/mL | Plasma concentration of EX-1/NHC/CH2018 (in vivo; both, Beagle, 1 hr): 8648 ng/mL | Plasma concentration of EX-1/NHC/CH2018 (in vivo; both, Beagle, 2 hr): 4038 ng/mL | Plasma concentration of EX-1/NHC/CH2018 (in vivo; both, Beagle, 4 hr): 970 ng/mL | Plasma concentration of EX-1/NHC/CH2018 (in vivo; both, Beagle, 6 hr): 244 ng/mL | Plasma concentration of EX-1/NHC/CH2018 (in vivo; both, beagle, 8 hr): 105 ng/mL | Plasma concentration of EX-1/NHC/CH2018 (in vivo; both, beagle, 24 hr): 18.4 ng/mL | AUCINF of CH2107 (Molnupiravir) (in vivo; female, Beagle): 778 ng·h/mL | AUClast of CH2107 (Molnupiravir) (in vivo; female, Beagle): 778 ng·h/mL | AUC(0-inf) (in vivo; female, Beagle): 598 ng·h/mL | AUC(0-t) (in vivo; female, Beagle): 596 ng·h/mL | Cmax (in vivo; female, Beagle): 1080 ng/mL | Plasma concentration of CH2107 (Molnupiravir) (in vivo; female, beagle, 0.5 hr): 693 ng/mL | Plasma concentration of CH2107 (Molnupiravir) (in vivo; female, beagle, 1 hr): 120 ng/mL | Plasma concentration of CH2107 (Molnupiravir) (in vivo; female, beagle, 4 hr): 8.06 ng/mL | Plasma concentration of CH2107 (Molnupiravir) (in vivo; female, beagle, 6 hr): 5.45 ng/mL | Plasma concentration of CH2107 (Molnupiravir) (in vivo; female, beagle, 8 hr): 1.08 ng/mL | concentration at 0.5 hr (in vivo; [5]): 499 ng/mL | concentration at 1 hr (in vivo; [5]): 207 ng/mL | concentration at 4 hr (in vivo; [5]): 8.06 ng/mL | concentration at 6 hr (in vivo; [5]): 5.45 ng/mL | concentration at 8 hr (in vivo; [5]): 1.08 ng/mL | Tmax (in vivo; female, beagle): 30 min | AUCINF of CH2107 (Molnupiravir) (in vivo; male, Beagle): 1246 ng·h/mL | AUClast of CH2107 (Molnupiravir) (in vivo; male, Beagle): 1245 ng·h/mL | Cmax of CH2107 (Molnupiravir) (in vivo; male, Beagle): 1680 ng/mL | MRTINF of CH2107 (Molnupiravir) (in vivo; male, Beagle): 34 min | T1/2 of CH2107 (Molnupiravir) (in vivo; male, Beagle): 21.1 min | Plasma concentration of CH2107 (Molnupiravir) (in vivo; male, Beagle, 0.25 hr): 1680 ng/mL | AUC(0-inf) (in vivo; male, Beagle): 1100 ng·h/mL | AUC(0-t) (in vivo; male, Beagle): 1100 ng·h/mL | MRT inf (in vivo; male, Beagle): 27.7 min | half-life (in vivo; male, Beagle): 12.7 min | Plasma concentration of CH2107 (Molnupiravir) (in vivo; male, beagle, 0.5 hr): 1430 ng/mL | Plasma concentration of CH2107 (Molnupiravir) (in vivo; male, beagle, 2 hr): 11.1 ng/mL | Plasma concentration of CH2107 (Molnupiravir) (in vivo; male, beagle, 4 hr): 1.44 ng/mL | Cmax (in vivo; male, beagle): 1450 ng/mL | concentration at 0.25 hr (in vivo; [6]): 1450 ng/mL | concentration at 0.5 hr (in vivo; [6]): 1420 ng/mL | concentration at 2 hr (in vivo; [6]): 9.81 ng/mL | concentration at 4 hr (in vivo; [6]): 1.44 ng/mL | Tmax (in vivo; male, beagle): 15 min | T1/2 (Microsome stability): 4.7 min | CC50 at 4 days (in vitro [2]): > 100 µM | half-life at 1 µM (in vitro [3]; dog): 3.9 min | half-life at 1 µM (in vitro [3]; human): 71.3 min | half-life at 1 µM (in vitro [3]; mouse): 5.6 min | half-life at 1 µM (in vitro [3]; rat): 13.8 min | Reduction in patients progressing into hospitalizations (SARS-CoV-2): 50%
